# According to ChEMBL document CHEMBL1145379 (J Med Chem, 2007):
# Experiments:
# [1] = Distribution coefficient, log D at pH 7.4; format: physicochemical; settings: octanol/water
# [2] = target: Prothrombin (Homo sapiens, UniProt P00734); experiment: Inhibition of human F2a; settings: read-out: Ki app
# [3] = test system: Plasma; experiment: Anticoagulant potency in human plasma assessed as concentration for doubling of prothrombin time; format: functional
# [4] = target: Coagulation factor X (Homo sapiens, UniProt P00742); experiment: Inhibition of human F10a; settings: read-out: Ki app
# Chain of Coagulation factor X (Homo sapiens, UniProt P00742) (P00742 41-179 limits assumed): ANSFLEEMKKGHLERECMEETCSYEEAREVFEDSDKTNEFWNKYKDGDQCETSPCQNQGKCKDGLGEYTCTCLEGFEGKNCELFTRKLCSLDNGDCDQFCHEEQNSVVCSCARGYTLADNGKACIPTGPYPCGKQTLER
# Chain of Coagulation factor X (Homo sapiens, UniProt P00742) (P00742 235-488 limits assumed): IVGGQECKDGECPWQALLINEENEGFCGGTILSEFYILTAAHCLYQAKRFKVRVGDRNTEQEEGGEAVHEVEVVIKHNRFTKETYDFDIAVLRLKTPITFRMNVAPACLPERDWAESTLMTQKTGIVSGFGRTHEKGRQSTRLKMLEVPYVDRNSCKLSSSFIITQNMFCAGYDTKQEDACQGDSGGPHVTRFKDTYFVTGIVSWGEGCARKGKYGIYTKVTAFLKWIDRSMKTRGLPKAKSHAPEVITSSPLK
# [5] = target: Plasminogen (Homo sapiens, UniProt P00747); experiment: Inhibition of human plasmin
# Chain of Plasminogen (P00747 97-580 limits assumed): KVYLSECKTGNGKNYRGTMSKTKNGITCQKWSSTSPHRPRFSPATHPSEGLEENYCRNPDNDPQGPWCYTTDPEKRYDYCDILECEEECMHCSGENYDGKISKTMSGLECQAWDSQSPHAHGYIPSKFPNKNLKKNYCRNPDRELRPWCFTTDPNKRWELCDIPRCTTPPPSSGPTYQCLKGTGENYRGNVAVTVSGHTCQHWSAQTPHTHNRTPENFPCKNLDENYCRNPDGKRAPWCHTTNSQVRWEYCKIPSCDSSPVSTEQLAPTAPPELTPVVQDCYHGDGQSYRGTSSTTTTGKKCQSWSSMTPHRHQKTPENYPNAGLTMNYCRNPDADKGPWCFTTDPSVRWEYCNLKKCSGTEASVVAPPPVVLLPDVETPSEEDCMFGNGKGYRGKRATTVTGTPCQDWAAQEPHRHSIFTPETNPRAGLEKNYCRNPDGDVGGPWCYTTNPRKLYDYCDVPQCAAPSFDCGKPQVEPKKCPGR
# Chain of Plasminogen (P00747 581-810 limits assumed): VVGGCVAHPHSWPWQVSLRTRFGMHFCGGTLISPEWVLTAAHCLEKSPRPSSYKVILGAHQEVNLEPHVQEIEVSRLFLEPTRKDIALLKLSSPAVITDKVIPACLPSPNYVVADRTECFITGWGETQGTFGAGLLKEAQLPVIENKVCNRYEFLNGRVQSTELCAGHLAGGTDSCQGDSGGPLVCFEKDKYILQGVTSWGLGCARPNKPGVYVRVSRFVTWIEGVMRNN
# [6] = test system: Canis familiaris; experiment: Ex vivo anticoagulant potency in dog assessed as prolongation of prothrombin time at 10 mg/kg, po after 1 hr; format: functional, Canis lupus familiaris
# [7] = test system: Canis familiaris; experiment: Ex vivo anticoagulant potency in dog assessed as prolongation of prothrombin time at 10 mg/kg, po after 6 hrs; format: functional, Canis lupus familiaris
# [8] = target: T1, Cathepsin G (Homo sapiens, UniProt P08311); experiment: Inhibition of human cathepsin G
# T1 sequence (P08311 whole entry): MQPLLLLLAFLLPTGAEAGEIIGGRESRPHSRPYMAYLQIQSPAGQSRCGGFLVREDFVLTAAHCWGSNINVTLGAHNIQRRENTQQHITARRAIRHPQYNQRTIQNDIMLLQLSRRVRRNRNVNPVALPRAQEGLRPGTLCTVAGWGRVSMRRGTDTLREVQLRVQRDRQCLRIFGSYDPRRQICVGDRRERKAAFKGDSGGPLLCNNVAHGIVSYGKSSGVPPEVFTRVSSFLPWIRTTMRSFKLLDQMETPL
# [9] = Clearance in Beagle dog at 1 mg/kg, iv; format: ADME, organism-based, Canis lupus familiaris; design: dose 1 mg/kg, route intravenous; settings: in vivo
# [10] = Inhibition of human chymotrypsin
# [11] = target: T2, Neutrophil elastase (Homo sapiens, UniProt P08246); experiment: Inhibition of human neutrophil elastase
# T2 sequence (P08246 whole entry): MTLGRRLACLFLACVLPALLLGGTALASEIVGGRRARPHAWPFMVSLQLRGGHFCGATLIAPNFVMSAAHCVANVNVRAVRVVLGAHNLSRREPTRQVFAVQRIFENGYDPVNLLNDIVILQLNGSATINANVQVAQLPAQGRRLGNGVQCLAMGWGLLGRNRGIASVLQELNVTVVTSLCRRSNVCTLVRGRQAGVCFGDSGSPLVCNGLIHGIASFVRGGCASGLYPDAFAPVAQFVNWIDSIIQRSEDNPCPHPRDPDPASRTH
# [12] = target: Coagulation factor X (Rattus norvegicus, UniProt Q63207); experiment: Inhibition of rat F10a
# Chain of Coagulation factor X (Rattus norvegicus, UniProt Q63207) (Q63207 41-180 limits assumed): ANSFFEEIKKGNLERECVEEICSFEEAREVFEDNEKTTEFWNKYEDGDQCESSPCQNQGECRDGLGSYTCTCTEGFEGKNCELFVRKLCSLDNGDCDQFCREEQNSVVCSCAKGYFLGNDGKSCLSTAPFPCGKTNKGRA
# Chain of Coagulation factor X (Rattus norvegicus, UniProt Q63207) (Q63207 232-482 limits assumed): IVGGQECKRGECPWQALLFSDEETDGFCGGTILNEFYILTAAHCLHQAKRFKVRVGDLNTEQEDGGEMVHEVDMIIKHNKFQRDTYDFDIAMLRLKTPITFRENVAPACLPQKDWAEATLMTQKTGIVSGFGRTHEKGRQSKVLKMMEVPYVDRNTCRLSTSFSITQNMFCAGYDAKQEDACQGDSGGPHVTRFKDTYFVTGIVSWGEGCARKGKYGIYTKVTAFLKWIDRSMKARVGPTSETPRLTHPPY
# [13] = target: Trypsin (Homo sapiens, UniProt P07477+P07478+P35030); experiment: Inhibition of human trypsin; format: protein assay
# [14] = Volume of distribution at steady state in Beagle dog at 1 mg/kg, iv; format: ADME, organism-based, Canis lupus familiaris; design: dose 1 mg/kg, route intravenous; settings: in vivo, read-out: Vss
# [15] = test system: Plasma; experiment: Anticoagulant potency in rat plasma assessed as concentration for doubling of prothrombin time; format: functional
# [16] = target: Urokinase-type plasminogen activator (Homo sapiens, UniProt P00749); experiment: Inhibition of human urokinase
# [17] = target: Plasma kallikrein (Homo sapiens, UniProt P03952); experiment: Inhibition of human kallikrein
# Chain of Plasma kallikrein (P03952 20-390 limits assumed): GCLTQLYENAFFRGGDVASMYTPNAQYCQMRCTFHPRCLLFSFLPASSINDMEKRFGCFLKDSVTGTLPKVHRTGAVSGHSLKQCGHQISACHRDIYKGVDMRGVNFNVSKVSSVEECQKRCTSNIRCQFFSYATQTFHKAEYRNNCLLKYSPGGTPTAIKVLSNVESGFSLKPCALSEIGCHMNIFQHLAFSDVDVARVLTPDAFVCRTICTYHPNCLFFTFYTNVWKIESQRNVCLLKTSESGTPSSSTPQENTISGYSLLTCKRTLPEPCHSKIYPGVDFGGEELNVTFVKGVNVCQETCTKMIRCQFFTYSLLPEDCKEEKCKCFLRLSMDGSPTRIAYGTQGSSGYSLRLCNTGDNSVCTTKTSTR
# Chain of Plasma kallikrein (P03952 391-638 limits assumed): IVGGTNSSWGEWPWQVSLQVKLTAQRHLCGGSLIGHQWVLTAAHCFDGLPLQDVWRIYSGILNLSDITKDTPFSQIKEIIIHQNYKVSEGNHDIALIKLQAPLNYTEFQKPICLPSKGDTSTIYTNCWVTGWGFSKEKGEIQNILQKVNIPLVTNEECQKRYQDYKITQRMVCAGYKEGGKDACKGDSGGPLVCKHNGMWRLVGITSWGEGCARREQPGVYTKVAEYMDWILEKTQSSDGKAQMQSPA
# [18] = Cmax in Beagle dog at 10 mg/kg, po; format: ADME, organism-based, Canis lupus familiaris; design: dose 10 mg/kg, route oral; settings: in vivo
# [19] = Inhibition of dog F10a; design: species or system Canis lupus familiaris
# [20] = test system: Plasma; experiment: Anticoagulant potency in dog plasma assessed as concentration for doubling of prothrombin time; format: functional, Canis lupus familiaris
# [21] = Bioavailability in Beagle dog at 10 mg/kg, po normalized to 1 mg/kg, iv; format: ADME, organism-based, Canis lupus familiaris; settings: in vivo
# [22] = target: Tissue-type plasminogen activator (Homo sapiens, UniProt P00750); experiment: Inhibition of human tPA
# Chain of Tissue-type plasminogen activator (P00750 whole entry): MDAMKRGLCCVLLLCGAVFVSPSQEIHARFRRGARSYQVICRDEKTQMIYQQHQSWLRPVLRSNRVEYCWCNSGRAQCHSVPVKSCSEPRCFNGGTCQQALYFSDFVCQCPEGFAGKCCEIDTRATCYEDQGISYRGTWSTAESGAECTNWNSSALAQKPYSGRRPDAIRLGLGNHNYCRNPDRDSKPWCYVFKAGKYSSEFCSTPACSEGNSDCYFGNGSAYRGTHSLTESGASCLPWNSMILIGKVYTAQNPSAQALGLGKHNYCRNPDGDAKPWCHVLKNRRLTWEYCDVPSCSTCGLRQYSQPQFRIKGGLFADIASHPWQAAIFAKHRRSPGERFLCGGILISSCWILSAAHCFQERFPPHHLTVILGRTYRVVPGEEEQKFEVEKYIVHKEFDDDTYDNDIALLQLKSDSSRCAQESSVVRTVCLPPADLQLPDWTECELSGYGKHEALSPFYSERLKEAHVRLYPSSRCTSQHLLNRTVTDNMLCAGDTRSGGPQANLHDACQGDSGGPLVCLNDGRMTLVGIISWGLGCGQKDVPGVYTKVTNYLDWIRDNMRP
# [23] = test system: Canis familiaris; experiment: Ex vivo anticoagulant potency in dog assessed as prolongation of prothrombin time at 10 mg/kg, po after 2 hrs; format: functional, Canis lupus familiaris
# [24] = Half life in Beagle dog at 1 mg/kg, iv; format: ADME, organism-based, Canis lupus familiaris; design: dose 1 mg/kg, route intravenous; settings: in vivo
# [25] = target: Coagulation factor XI (Homo sapiens, UniProt P03951); experiment: Inhibition of human F11a
# Chain of Coagulation factor XI (P03951 19-387 limits assumed): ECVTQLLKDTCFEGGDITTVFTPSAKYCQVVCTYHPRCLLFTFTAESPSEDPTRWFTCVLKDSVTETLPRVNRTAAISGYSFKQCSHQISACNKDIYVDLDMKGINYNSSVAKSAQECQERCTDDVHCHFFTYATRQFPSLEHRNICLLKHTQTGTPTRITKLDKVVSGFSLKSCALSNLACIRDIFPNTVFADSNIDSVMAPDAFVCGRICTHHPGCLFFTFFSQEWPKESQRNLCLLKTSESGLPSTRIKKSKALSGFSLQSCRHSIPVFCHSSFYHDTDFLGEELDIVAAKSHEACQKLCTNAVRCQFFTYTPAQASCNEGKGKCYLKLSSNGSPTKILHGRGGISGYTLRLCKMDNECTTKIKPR
# Chain of Coagulation factor XI (P03951 388-625 limits assumed): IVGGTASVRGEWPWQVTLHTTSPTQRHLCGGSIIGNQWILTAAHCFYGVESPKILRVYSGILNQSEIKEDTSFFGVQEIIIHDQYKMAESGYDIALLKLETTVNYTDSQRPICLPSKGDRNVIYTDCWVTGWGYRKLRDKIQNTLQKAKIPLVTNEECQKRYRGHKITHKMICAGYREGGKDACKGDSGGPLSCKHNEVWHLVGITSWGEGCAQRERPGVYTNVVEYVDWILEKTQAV
# [26] = test system: Rattus norvegicus; experiment: Inhibition of thrombosis in iv dosed Wistar rat vena cava stasis model; format: functional, organism-based
Structure (SMILES),Ki [2],Activity [3],Ki [4],clearance [9],Vd [14],Cmax [18],bioavailability [21],half-life [24],further results
CN1CCN(Cc2csc(C(=O)Nc3ccc(Cl)cc3C(=O)Nc3ccc(Cl)cc3)c2Cl)CC1,840 nM,12 µM,0.76 nM,–,–,–,–,–,logD [1]: 2.96
COc1cc(Cl)cc(C(=O)Nc2ccc(Cl)cn2)c1NC(=O)c1scc(CN(C)C2=NCCO2)c1Cl,90 nM,0.36 µM,0.007 nM,5.8 mL/min/kg,1.6 L/kg,1900 ng/mL,56%,3.2 h,Ki [5]: > 10000 nM; Fold change [6]: 3.2; Fold change [7]: 4; Ki [8]: > 10000 nM; Ki [10]: > 10000 nM; Ki [11]: > 10000 nM; Ki [12]: 0.29 nM; Ki [13]: > 10000 nM; Activity [15]: 93 µM; Ki [16]: > 5000 nM; Ki [17]: 37 nM; Ki [19]: 0.15 nM; Activity [20]: 0.35 µM; Ki [22]: > 5000 nM; Fold change [23]: 5; Ki [25]: > 10000 nM
CNCc1csc(C(=O)Nc2c(OC)cc(Cl)cc2C(=O)Nc2ccc(Cl)cn2)c1Cl,3700 nM,1.6 µM,0.21 nM,1.6 mL/min/kg,1.4 L/kg,5100 ng/mL,75%,10.5 h,Ki [5]: > 10000 nM; Ki [8]: > 10000 nM; Activity [26]: Dose-dependent effect; Ki [10]: > 10000 nM; Ki [11]: 10000 nM; Ki [12]: 2.5 nM; Ki [13]: > 10000 nM; Activity [15]: 7.3 µM; Ki [16]: > 5000 nM; Ki [17]: 1000 nM; Ki [19]: 1.7 nM; Activity [20]: 4.35 µM; Ki [22]: > 5000 nM; Ki [25]: > 10000 nM
COc1cc(Cl)cc(C(=O)Nc2ccc(Cl)cn2)c1NC(=O)c1scc(CN(C)CCO)c1Cl,1400 nM,1.6 µM,0.24 nM,27 mL/min/kg,4.4 L/kg,1200 ng/mL,> 100%,2.1 h,–
COc1cc(Cl)cc(C(=O)Nc2ccc(Cl)cn2)c1NC(=O)c1scc(CN(C)C(N)=O)c1Cl,340 nM,2.6 µM,0.026 nM,–,–,–,–,–,–
COc1cc(Cl)cc(C(=O)Nc2ccc(Cl)cn2)c1NC(=O)c1scc(CN2C=NCC2)c1Cl,3300 nM,0.26 µM,0.004 nM,–,–,–,–,–,–
COc1cc(Cl)cc(C(=O)Nc2ccc(Cl)cn2)c1NC(=O)c1scc(CN(C)CCN2CCCC2)c1Cl,190 nM,0.24 µM,0.019 nM,–,–,–,–,–,–
CNc1nccn1Cc1csc(C(=O)Nc2c(OC)cc(Cl)cc2C(=O)Nc2ccc(Cl)cn2)c1Cl,990 nM,1.2 µM,–,4.4 mL/min/kg,1 L/kg,3700 ng/mL,98%,3.4 h,Ki [5]: > 5000 nM; Ki [8]: > 5000 nM; Activity [26]: Dose-dependent effect; Ki [10]: > 5000 nM; Ki [11]: > 5000 nM; Ki [12]: 0.06 nM; Ki [13]: > 5000 nM; Activity [15]: 2.56 µM; Ki [16]: > 5000 nM; Ki [17]: 45 nM; Ki [19]: 0.31 nM; Activity [20]: 4.2 µM; Ki [22]: > 5000 nM; Ki [25]: > 5000 nM
COc1cc(Cl)cc(C(=O)Nc2ccc(Cl)cn2)c1NC(=O)c1scc(CN2CCN(C)CC2)c1Cl,1500 nM,1.6 µM,0.16 nM,–,–,–,–,–,logD [1]: 2.75
COc1cc(Cl)cc(C(=O)Nc2ccc(Cl)cn2)c1NC(=O)c1scc(CN2CCN=C2C)c1Cl,3300 nM,0.32 µM,≤ 0.01 nM,–,–,–,–,–,–
CN1CCN(Cc2csc(C(=O)Nc3ccc(Cl)cc3C(=O)Nc3ccc(Cl)cn3)c2Cl)CC1,680 nM,6.9 µM,0.36 nM,–,–,–,–,–,logD [1]: 3.11
